In ChEMBL document CHEMBL5532764, “Identification of SARS-CoV-2 Mpro inhibitors through deep reinforcement learning for de novo drug design and computational chemistry approaches” (RSC Med Chem, 2024) one finds IC50 data, which are given here for 12 compounds.

One test has as its target Procathepsin L (Homo sapiens, UniProt P07711). The test can be described thus: Inhibition of human liver Cathepsin L using Z-Phe-Arg7-amido-4-methylcoumarin hydrochloride as substrate by FRET assay.
Test [1] concerns the target Replicase polyprotein 1ab (Severe acute respiratory syndrome coronavirus 2, UniProt P0DTD1).

Each structure is given as a SMILES string.

Chain of Procathepsin L (P07711 whole entry): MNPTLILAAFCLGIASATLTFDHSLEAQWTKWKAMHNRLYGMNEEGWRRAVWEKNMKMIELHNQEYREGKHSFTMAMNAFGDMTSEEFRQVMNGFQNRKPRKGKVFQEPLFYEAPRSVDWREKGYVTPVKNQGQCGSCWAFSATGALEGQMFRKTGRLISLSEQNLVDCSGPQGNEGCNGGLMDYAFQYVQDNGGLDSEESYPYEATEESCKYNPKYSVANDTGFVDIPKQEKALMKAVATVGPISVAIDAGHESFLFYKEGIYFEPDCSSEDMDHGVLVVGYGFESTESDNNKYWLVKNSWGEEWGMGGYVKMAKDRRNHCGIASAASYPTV

Usually IC50 stands for the point on the concentration scale where inhibition reaches its midpoint. A low value points to inhibition by little substance. For the compound `O=C1N(Cc2ccccc2Cl)CCN1c1cncc2ccc(Cl)cc12`, the IC50 at Procathepsin L is above 125 µM.

Take `O=C(c1cccnc1)N1CCN(Cc2cc(Cl)cc(Cl)c2OC(F)F)CC1`: the results for the IC50 (in test [1]; at Procathepsin L) were 63 µM and above 125 µM, respectively.

Turning to `Cc1cncc(CC(=O)N2CCC[C@H]2c2cccc(Cl)c2)c1`, at Procathepsin L, the IC50 was above 125 µM.

As to `O=C(c1cccnc1)N1CCN(Cc2cccc(Cl)c2Cl)CC1`, the results for the IC50 (in test [1]; on Procathepsin L) were 63.5 µM and above 125 µM, respectively.

For the compound `N#Cc1ccccc1CN1CCCN(C(=O)c2cncc(Cl)c2)CC1`, at Procathepsin L, the IC50 is above 125 µM.

As for `Cc1cncc(CC(=O)N2CCc3cc(Cl)c(Cl)cc3C2)c1`, the IC50 against Procathepsin L is above 125 µM.

As for `O=C(c1cncc(Cl)c1)N1CCCN(Cc2ccccc2Cl)CC1`, at Procathepsin L, the IC50 was above 125 µM.

For `O=C1N(Cc2ccc(Cl)cc2Cl)CCN1c1cncc2ccccc12`, the IC50 at Procathepsin L is above 125 µM.

In turn, `O=C(Cc1cccnc1)N1CCc2c(Cl)cc(Cl)cc2C1` gave an IC50 against Procathepsin L above 125 µM.

Take `O=C(c1cncc2ccc(F)cc12)N1CCN(Cc2ccc(Cl)cc2Cl)CC1`: the IC50 against Procathepsin L was above 125 µM.

`O=C1N[C@@H](Cc2cc(Cl)ccc2F)C(=O)N1c1cncc(F)c1` yielded an IC50 against Procathepsin L above 125 µM.

For the compound `O=C(Nn1cnc2c(F)cc(F)cc21)C1COc2cc(Cl)c(Cl)cc21` (racemic), the IC50 on Procathepsin L was 103 µM.
